Patent US10081660B2, “Polynucleotide, polypeptide with immunosuppressive activity, expression cassette, expression vector, host cell, pharmaceutical composition, methods for producing a polypeptide with immunosuppressive activity and for preventing or treating conditions that require immunosuppression, and use of a …” (FUNDAÇÃO BUTANTAN, priority 2013, dated 2018)
Ends that are not written are not given here.

T1: human fibrinogen (Homo sapiens, UniProt P02671+P02675+P02679)
T1 sequence (P02671 20-629 limits assumed): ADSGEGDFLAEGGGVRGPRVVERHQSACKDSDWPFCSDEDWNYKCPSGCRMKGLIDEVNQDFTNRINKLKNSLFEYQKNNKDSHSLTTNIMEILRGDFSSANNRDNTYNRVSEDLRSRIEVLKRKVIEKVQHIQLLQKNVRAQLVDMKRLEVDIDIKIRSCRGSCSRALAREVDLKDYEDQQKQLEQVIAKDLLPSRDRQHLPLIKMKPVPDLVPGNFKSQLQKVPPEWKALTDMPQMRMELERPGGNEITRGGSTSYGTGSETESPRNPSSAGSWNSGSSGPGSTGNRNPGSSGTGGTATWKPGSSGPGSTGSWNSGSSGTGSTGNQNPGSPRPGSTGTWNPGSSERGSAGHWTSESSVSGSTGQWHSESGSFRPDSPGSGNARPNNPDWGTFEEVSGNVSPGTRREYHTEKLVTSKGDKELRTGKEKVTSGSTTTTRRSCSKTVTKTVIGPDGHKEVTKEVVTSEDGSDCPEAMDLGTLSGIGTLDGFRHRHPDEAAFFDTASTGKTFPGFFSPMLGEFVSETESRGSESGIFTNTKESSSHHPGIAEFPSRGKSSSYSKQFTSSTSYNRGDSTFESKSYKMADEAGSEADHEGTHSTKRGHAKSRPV
T1 sequence (P02675 31-491): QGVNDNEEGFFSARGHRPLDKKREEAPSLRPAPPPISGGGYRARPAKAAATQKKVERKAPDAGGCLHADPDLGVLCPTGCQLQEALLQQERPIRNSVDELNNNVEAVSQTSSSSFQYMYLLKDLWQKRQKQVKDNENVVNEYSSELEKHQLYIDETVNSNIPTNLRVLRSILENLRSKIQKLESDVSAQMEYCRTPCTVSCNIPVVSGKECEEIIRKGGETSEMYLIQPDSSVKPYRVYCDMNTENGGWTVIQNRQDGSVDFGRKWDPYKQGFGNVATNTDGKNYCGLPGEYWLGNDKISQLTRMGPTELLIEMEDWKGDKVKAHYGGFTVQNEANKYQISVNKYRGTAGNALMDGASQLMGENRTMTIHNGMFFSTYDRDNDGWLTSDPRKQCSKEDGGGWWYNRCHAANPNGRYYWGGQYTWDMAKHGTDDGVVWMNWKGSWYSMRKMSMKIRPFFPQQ
T1 sequence (P02679 27-433 limits assumed): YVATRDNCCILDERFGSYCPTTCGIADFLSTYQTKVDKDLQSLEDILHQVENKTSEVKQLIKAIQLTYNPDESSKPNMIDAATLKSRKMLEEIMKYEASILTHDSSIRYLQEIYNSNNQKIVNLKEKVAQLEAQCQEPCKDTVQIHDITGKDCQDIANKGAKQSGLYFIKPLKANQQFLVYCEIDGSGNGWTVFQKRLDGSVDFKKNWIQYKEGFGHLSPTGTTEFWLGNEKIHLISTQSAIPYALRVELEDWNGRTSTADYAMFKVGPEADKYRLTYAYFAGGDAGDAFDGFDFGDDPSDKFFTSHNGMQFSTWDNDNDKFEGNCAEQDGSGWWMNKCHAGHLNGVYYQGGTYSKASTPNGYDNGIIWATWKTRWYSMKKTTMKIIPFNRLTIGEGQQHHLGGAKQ

B1: recombinant polypeptide: SEQ ID NO: 2 plus six histidine residues, T7 phage protein 10 portion and enterokinase site; approximately 30 kDa, expressed in E. coli (protein)
chain: MRGSHHHHHHGMASMTGGQQMGRDLYDDDDKDRWGSELFSQKYIELVVVADHGMFTKYNGNLNTIRTRVHEIVNTLNGFYRSLNIHISLTDLEIWSNQDLINVQSAAADTLKTFGEWRERVLLNRISHDNAQLLTAIDLADNTIGIAYTGGMCYPKNSVGIVQDHSPKTLLIAVTMAHELGHNLGMKHDENHCHCSASFCIMPPSLSEGPSYEFSDCSKDYYEMFLTKRKPQCILNKPWYHGIRSLIRLLTKPERKLSWLLPPLSNN

Tests used:
HIII mice = test: Immunosuppressive activity against soluble antigen (human gamma globulin, HGG), anti-HGG antibodies by ELISA; format: in vivo; conditions: for suppression of anti-HGG antibody production: single 3 μg dose intraperitoneally, HGG on Al(OH)3 after 24 hours
Experimental: The immunosuppressive activity can also be evaluated against a soluble antigen, such as human gamma globulin (HGG), adsorbed in aluminum hydroxide, and the antibodies titer determined by ELISA.
Titers were determined by ELISA and calculated considering the highest dilution of experimental sera whose O.D. (optical density) was five times higher than those obtained for normal serum at the same dilution.
The immunosuppressive activity of the synthetic polypeptide P2 (SEQ ID NO: 5) and P6 (SEQ ID NO: 9) was evaluated against HGG, taking into account immunosuppression time after preventive treatment and antigen inoculation. In all protocols, animals received a single dose of the tested polypeptides. In this experiment, the HIII mice (5 animals/group) were treated intraperitoneally with 3 μg of P6 or 3 μg of P2, and after 24 hours, were immunized intraperitoneally with HGG adsorbed on Al(OH)3 (10 μg/animal); The untreated group was used as a positive control receiving only HGG. […] The negative control was represented by a group called normal serum, i.e., serum from untreated and non-immunized animals. O.D. values obtained from the 1:500 dilution were presented herein as average+standard deviation and were statistically analyzed by Student t test. Values were considered significant when p<0.0001 (***); p<0.005 (**); p<0.05 (*) compared to the positive control, i.e., animals immunized only with HGG. Thus, the HIII mice groups received polypeptides SEQ ID NO: 22, P2 and P6.

Lineage HIII mice [1] = test: Immunogenicity analysis: anti-polypeptide antibodies by ELISA after immunization; format: in vivo; conditions: intraperitoneal, bleeding seven days after immunization
Experimental: The immunogenicity is the capacity of a substance to induce an immune response. To evaluate the immunogenic potential of this invention's polypeptides, the antibody production is determined by the dosage of antibodies titer by ELISA after administration of the present invention polypeptides in potent adjuvants.
Anti-recombinant polypeptide antibodies were measured by ELISA. […] The reactions were developed by the addition of anti-mice-IgG conjugated to peroxidase (1: 7,500), followed by addition of OPD (o-Phenylenediamine dihydrochloride) and H2O2. The reading of the reactions was performed at λ492 nm on a plate spectrophotometer. The titer was established as the highest dilution of experimental sera which optical densities were three times higher than those obtained for normal serum at the same dilution. The data correspond to values obtained from two independent experiments. The significance between different groups (6 animals/group) was p<0.01.
One group was used as a positive control, receiving human gamma globulin (HGG). Bleeding was performed seven days after immunization and antibody production was assessed by ELISA.

[2] = test system: FRET substrate Abz-FRSSRQ EDDnp; test: Proteolytic activity on extinguished fluorescence (FRET) substrate, spectrofluorometer; format: biochemical; conditions: 10 μg of polypeptide, fluorescence monitored for 1 hour
human fibrinogen = target: T1, human fibrinogen; test: Fibrinogenolytic assay (SDS-PAGE); format: biochemical; conditions: 30 μg human fibrinogen, 5 μg polypeptide, 37° C. for 5 hours; whole L. muta venom as positive control
Experimental: (§1) Another possibility would be the verification of hydrolysis capacity in known substrates. The proteolytic enzymes of viperidae venoms have, for example, the capacity to hydrolyze the fibrinogen and the C3 component of the human complement system, and verifying this effect is a way of inquiring about the proteolytic activity.
To confirm the absence of enzymatic activity, one experiment was carried out a fibrinogenolytic assay. […] The samples were subjected to SDS-PAGE (10%) analysis under reducing conditions and the gel was stained with Coomassie blue.

[3] = target: C3 component of human complement system (Homo sapiens, UniProt P01024); test: Cleavage of C3 component (SDS-PAGE); format: biochemical; conditions: 9 μg human C3, 5 μg polypeptide, 37° C. for 5 hours
C3 component of human complement system, sequence (P01024 23-1663): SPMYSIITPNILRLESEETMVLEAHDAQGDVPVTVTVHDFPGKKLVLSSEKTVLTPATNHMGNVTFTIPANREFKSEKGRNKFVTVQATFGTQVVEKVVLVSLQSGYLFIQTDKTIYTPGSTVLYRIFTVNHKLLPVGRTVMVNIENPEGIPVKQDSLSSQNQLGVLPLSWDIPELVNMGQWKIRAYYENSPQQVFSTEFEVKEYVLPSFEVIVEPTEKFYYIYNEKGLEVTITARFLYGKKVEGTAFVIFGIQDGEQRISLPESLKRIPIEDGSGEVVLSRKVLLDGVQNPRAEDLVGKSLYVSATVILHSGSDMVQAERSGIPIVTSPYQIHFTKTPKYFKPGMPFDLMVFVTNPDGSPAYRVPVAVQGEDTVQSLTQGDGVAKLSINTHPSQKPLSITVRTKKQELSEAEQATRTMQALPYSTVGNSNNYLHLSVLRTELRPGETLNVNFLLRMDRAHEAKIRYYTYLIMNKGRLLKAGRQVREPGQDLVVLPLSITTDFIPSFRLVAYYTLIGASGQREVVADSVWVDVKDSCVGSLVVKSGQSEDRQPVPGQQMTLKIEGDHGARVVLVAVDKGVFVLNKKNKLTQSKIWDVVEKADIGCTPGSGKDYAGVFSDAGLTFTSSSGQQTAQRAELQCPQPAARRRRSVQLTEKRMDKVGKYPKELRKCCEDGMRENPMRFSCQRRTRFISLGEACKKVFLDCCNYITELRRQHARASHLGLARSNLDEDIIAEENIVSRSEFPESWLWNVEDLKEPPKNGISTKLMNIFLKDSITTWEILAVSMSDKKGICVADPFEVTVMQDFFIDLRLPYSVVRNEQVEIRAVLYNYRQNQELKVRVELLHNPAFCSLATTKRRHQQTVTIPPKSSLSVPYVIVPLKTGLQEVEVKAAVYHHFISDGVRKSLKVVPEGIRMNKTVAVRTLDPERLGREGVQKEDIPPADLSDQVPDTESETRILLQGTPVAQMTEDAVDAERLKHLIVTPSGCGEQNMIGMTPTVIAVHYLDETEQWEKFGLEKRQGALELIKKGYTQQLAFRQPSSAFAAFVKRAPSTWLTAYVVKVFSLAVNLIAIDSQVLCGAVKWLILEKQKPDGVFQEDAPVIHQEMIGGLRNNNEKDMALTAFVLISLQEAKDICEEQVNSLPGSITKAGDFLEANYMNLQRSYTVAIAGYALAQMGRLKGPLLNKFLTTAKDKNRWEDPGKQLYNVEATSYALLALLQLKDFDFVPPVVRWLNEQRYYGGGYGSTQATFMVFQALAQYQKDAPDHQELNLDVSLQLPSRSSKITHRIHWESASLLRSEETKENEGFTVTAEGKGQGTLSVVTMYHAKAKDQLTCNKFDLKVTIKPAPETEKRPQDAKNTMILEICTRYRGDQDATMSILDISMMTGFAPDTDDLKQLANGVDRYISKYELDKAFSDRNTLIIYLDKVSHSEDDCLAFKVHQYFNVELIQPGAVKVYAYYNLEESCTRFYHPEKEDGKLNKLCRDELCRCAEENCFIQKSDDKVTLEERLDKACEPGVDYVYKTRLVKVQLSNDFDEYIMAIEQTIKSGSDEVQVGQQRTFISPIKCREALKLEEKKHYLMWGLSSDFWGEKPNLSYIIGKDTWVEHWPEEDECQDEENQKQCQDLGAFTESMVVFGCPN
Description: as §1
According to the caption on FIG. 14: (A) Human C3; (B) Human C3+venom; (C) Human C3+polypeptide. The samples were subjected to SDS-PAGE (10%) analysis under reducing conditions and the gel was stained with Coomassie blue.

BALB/c mice = test: Hemorrhagic activity, method of Kondo et al., intradermal injection; format: in vivo; conditions: 4 mg L. muta venom or 50 mg recombinant polypeptide, skin assessed after 2 hours
Experimental: (1960, Jpn. J. Med. Sci. Biol. 13: 43-52).
After 2 hours, the animals were euthanized and the skin removed to assess the presence of hemorrhage.

Lineage HIII mice [4] = test: Immunosuppressive activity against particulate antigen (sheep erythrocytes), hemagglutination; format: in vivo; conditions: 50 μg intraperitoneally 72 hours before immunization with sheep erythrocytes, […] cells/animal
Experimental: For the invention's polypeptide immunosuppressive activity analysis, Lineage HIII mice constitutively known as good responder to of antibody production are inoculated, intraperitoneally, and immunized with structurally complex and highly immunogenic antigens, such as sheep erythrocytes, a particulate antigen. The animals' serum is then analyzed regarding its hemagglutination activity: the lower is the hemagglutinating effect; the higher is the immunosuppressive capacity of the evaluated compound. The immunosuppressive activity can also be evaluated against a soluble antigen, such as human gamma globulin (HGG), adsorbed in aluminum hydroxide, and the antibodies titer determined by ELISA.
An untreated group was used as positive control and received only E^S. Samples of 50 μL E^S (2% v/v) were incubated with 50 μL of the sera from immunized animals (serially diluted) in 96 U-bottom well plates for 8 hours at room temperature. As negative control, E^S were incubated with PBS only. Antibody titers were that ones whose higher serum dilutions promoted agglutination of erythrocytes. The data are representative of three independent experiments. The significance between different groups was p<0.01 (FIG. 16).

Molecule	suppression of anti-HGG antibody production (HIII mice; after 7 days)	suppression of anti-HGG antibody production (HIII mice; after 13 days)	suppression of anti-HGG antibody production (HIII mice; after 36 days)	immunogenicity (production of antibodies against P6) (Lineage HIII mice [1]; P6 (3 mg))	inhibition of anti-HGG antibody production (HIII mice; P6 3 μg/animal or recombinant polypeptide 50 μg/animal, HGG in Al(OH)3 after 24 hours)	proteolytic activity on the FRET substrate [2]	hydrolysis of fibrinogen (human fibrinogen)	cleavage of C3 component [3]	hemorrhagic activity (BALB/c mice)	immunogenic potential (production of specific anti-recombinant polypeptide antibodies) (Lineage HIII mice [1]; 50 μg)	hemagglutination by serum of treated animals (antibody response to sheep erythrocytes) (Lineage HIII mice [4])
AIDLADNTIGIAYTGG [P2]	suppression of anti-HGG antibody production was induced	suppression of anti-HGG antibody production was induced	suppression of anti-HGG antibody production was induced	–	–	–	–	–	–	–	–
NAQLLTAID [P6]	suppression of anti-HGG antibody production was induced	suppression of anti-HGG antibody production was induced	suppression of anti-HGG antibody production was induced	did not show immunogenicity	inhibition of anti-HGG antibody production	–	–	–	–	–	–
B1	–	–	–	–	–	absence of recombinant polypeptide proteolytic activity	not able to hydrolyze fibrinogen	unable to cleave the C3 component	no hemorrhagic activity	very low or no immunogenic potential	unable to promote hemagglutination
